Results reported in patent US20240101573A1, “MACROCYCLIC K-RAS G12C INHIBITOR, PREPARATION METHOD THEREFOR AND USE THEREOF” (Abbisko Therapeutics Co., Ltd., priority 2020, published 2024).

What was measured:
H358 = assay: Anti-proliferation 2D CTG test (H358); assay type: cell-based; conditions: H358 cells, 1500 cells/well, 5 days incubation with compound, CTG readout
Outline: (§1)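 H358 (1500 cells/well) and MIA PaCa-2 (500 cells/well) seeded overnight, then treated 5 days at 37 °C with 10-point 1:3 dilutions, top final […], 0.5% DMSO. Viability by CellTiter-Glo luminescence; IC50 from four-parameter fit normalized to plate controls.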

MIA PaCa-2 = assay: Anti-proliferation 2D CTG test (MIA PaCa-2); assay type: cell-based; conditions: MIAPACA-2 cells, 500 cells/well, 5 days incubation with compound, CTG readout
Outline: as §1

Structure (SMILES)	IC50 (H358) [nM]	IC50 (MIA PaCa-2) [nM]	IC50 (H358; Homo sapiens, NCI-H358, 120 h) [nM]	IC50 (MIA PaCa-2; Homo sapiens, MIA PaCa-2, 120 h) [nM]
C=CC(=O)N1CCN(c2nc(=O)n3c4nc(c(F)cc24)-c2c(F)cccc2OCC(OCC)C(O)c2ccnc(C(C)C)c2-3)[C@@H](C)C1 (stereo partly drawn) [Example 46, (S)-2^4-((S)-4-acryloyl-2-methylpiperazin-1-yl)-6-ethoxy-2^6,3^6-difluoro-7-hydroxy-1^2-isopropyl-2^1,2^2-dihydro-4-oxa-2(1,7)-pyrido[2,3-d]pyrimidina-1(3,4)-pyridina-3(1,2)-benzocycloheptane-2^2-one]	261	148		
C=CC(=O)N1CCN(c2nc(=O)n3c4nc(c(F)cc24)-c2c(F)cccc2OCC(O)C(OCC2CC2)c2ccnc(C(C)C)c2-3)[C@@H](C)C1 (stereo partly drawn) [Example 47, (R)-2^4-((S)-4-acryloyl-2-methylpiperazin-1-yl)-7-(cyclopropylmethoxy)-2^6,3^6-difluoro-6-hydroxy-1^2-isopropyl-2^1,2^2-dihydro-4-oxa-2(1,7)-pyrido[2,3-d]pyrimidina-1(3,4)-pyridina-3(1,2)-benzocycloheptane-2^2-one]			9	5
C=CC(=O)N1CCN(c2nc(=O)n3c4nc(c(F)cc24)-c2c(F)cccc2OCC(OCC2CC2)C(O)c2ccnc(C(C)C)c2-3)[C@@H](C)C1 (stereo partly drawn) [Example 49, (R)-2^4-((S)-4-acryloyl-2-methylpiperazin-1-yl)-6-(cyclopropylmethoxy)-2^6,3^6-difluoro-7-hydroxy-1^2-isopropyl-2^1,2^2-dihydro-4-oxa-2(1,7)-pyrido[2,3-d]pyrimidina-1(3,4)-pyridina-3(1,2)-benzocycloheptane-2^2-one]	7	6		
C=CC(=O)N1CCN(c2nc(=O)n3c4nc(c(F)cc24)-c2c(F)cccc2OCC(O)C(OCC(F)F)c2ccnc(C(C)C)c2-3)[C@@H](C)C1 (stereo partly drawn) [Example 51, (R)-2^4-((S)-4-acryloyl-2-methylpiperazin-1-yl)-7-(2,2-difluoroethoxy)-2^6,3^6-difluoro-6-hydroxy-1^2-isopropyl-2^1,2^2-dihydro-4-oxa-2(1,7)-pyrido[2,3-d]pyrimidina-1(3,4)-pyridina-3(1,2)-benzocycloheptane-2^2-one]	10	7		
C=CC(=O)N1CCN(c2nc(=O)n3c4nc(c(F)cc24)-c2c(F)cccc2OCC(OCC(F)F)C(O)c2ccnc(C(C)C)c2-3)[C@@H](C)C1 (stereo partly drawn) [Example 53, (R)-2^4-((S)-4-acryloyl-2-methylpiperazin-1-yl)-6-(2,2-difluoroethoxy)-2^6,3^6-difluoro-7-hydroxy-1^2-isopropyl-2^1,2^2-dihydro-4-oxa-2(1,7)-pyrido[2,3-d]pyrimidina-1(3,4)-pyridina-3(1,2)-benzocycloheptane-2^2-one]	17	16		
C=CC(=O)N1CCN(c2nc(=O)n3c4nc(c(F)cc24)-c2c(F)cccc2OCC(OCC(F)F)C(O)c2ccnc(C(C)C)c2-3)[C@@H](C)C1 (stereo partly drawn) [Example 54, (S)-2^4-((S)-4-acryloyl-2-methylpiperazin-1-yl)-6-(2,2-difluoroethoxy)-2^6,3^6-difluoro-7-hydroxy-1^2-isopropyl-2^1,2^2-dihydro-4-oxa-2(1,7)-pyrido[2,3-d]pyrimidina-1(3,4)-pyridina-3(1,2)-benzocycloheptane-2^2-one]	830	708		
C=CC(=O)N1CCN(c2nc(=O)n3c4nc(c(F)cc24)-c2c(F)cccc2OCC(OC(C)C)C(O)c2ccnc(C(C)C)c2-3)[C@@H](C)C1 (stereo partly drawn) [Example 55, (R)-2^4-((S)-4-acryloyl-2-methylpiperazin-1-yl)-6-isopropoxy-2^6,3^6-difluoro-7-hydroxy-1^2-isopropyl-2^1,2^2-dihydro-4-oxa-2(1,7)-pyrido[2,3-d]pyrimidina-1(3,4)-pyridina-3(1,2)-benzocycloheptane-2^2-one]	8	7		
